Assay [1] has as its system skin microbiota. To be noted: atopic dermatitis lesion area, baseline vs four weeks of daily washes. The procedure: The effect of zinc pyrithione body wash on skin microbiota of subjects with atopic dermatitis with lesions was assessed using a standard leg wash assay. Subjects completed a 4-week period of daily leg washes with zinc pyrithione (BCP2ZPT), a B7U bar soap, or a vehicle control (BCP2). Samples were collected at baseline (study onset) and after 4 weeks of leg washings.
Another study was conducted to specifically assess the effect of a zinc ionophore, i.e., zinc pyrithione, on the skin microbiota diversity of atopic dermatitis lesions using standard body wash protocol well-known in the art. The washes were carried out on a daily basis over a four-week period and 16S rDNA sequencing was used to identify bacterial genera while qPCR amplification was used to quantify the abundance of the genera. Measurements were taken at baseline and after the four-week wash period. Controls involved subjects washing with B7U bar soap or the BCP2 vehicle alone. […]

For assay [2], the system named is skin microbiota. To be noted: four-week wash period.
Excerpt: Only qualified subjects with atopic dermatitis received treatment products during the treatment phase. These qualified subjects were each divided into three treatment groups. […]
Samples of microbiotas from skin with atopic dermatitis were subjected to sequence analyses to identify the various genera present on the skin and to measure relative abundances. In a first sequencing round, read lengths of 150-800 bp were obtained using the Closed OTU picking method. […] The second sequencing round yielded read lengths of 250-600 bp using the Cosed OTU picking method. […] The third sequencing round involved read lengths of 250-600 bp being obtained using the Cosed OTU picking method. […]
A study was conducted of the effect on skin microbiota of single washes or four-week wash periods of either a 0.5% zinc pyrithione body wash, a vehicle body wash, or a B7U bar soap wash. The relative abundances of 11 identified bacterial genera were monitored, along with a category of unclassified microbes. […]
In assay [3] the test system is skin microbiota. The assay can be described thus: Four-week daily wash of atopic dermatitis without lesions, 16S rDNA sequencing and qPCR (FIG. 6). In kind it is in vivo, human. The conditions noted are these: baseline vs four weeks of daily washing, p=0.027, FDR>0.05. The procedure: A study mirroring the study described in the brief description of FIG. 5 was conducted with subjects having atopic dermatitis without lesions substituted for subjects with atopic dermatitis with lesions. The relative abundance of Staphylococcus was measured using 16S rDNA sequencing and qPCR quantification. Subjects performed the standard leg wash using B7U bar soap, vehicle only (BCP2), or zinc pyrithione in BCP2 vehicle (BCP2ZPT). Samples were taken at the onset of the study to establish a baseline and after four weeks of leg washings.
A related experiment assessing the treatment effects of a zinc ionophore on skin microbiota diversity in subjects with atopic dermatitis without lesions was performed to assess the effects of the therapeutic in this context. The experimental design involved daily body washes of subjects with atopic dermatitis lacking visible lesions over a four-week period, with subjects engaging in daily washing with either B7U bar soap, vehicle alone (BCP2 base), or BCP2ZPT (which included 0.5% zinc pyrithione). Skin samples were again analyzed for microbiota composition by 16S rDNA sequencing with qPCR to quantify the abundances of the bacterial genera in the skin microbiotas.
Background: Real-time PCR tracks product formation cycle by cycle.

In assay [4] the test system is skin microbiota. The conditions noted are these: skin having atopic dermatitis, in a body wash.

Each structure is given as a SMILES string. “Also recorded” adds a separate entry of the source. Where two headings read alike, the source gives them in different places.

`[O-]n1ccccc1=S.[O-]n1ccccc1=S.[Zn+2]` [zinc pyrithione, zinc salt of 1-hydroxy-2-pyridinethione]: the “abundance of Kocuria” value with skin microbiota [1] is “increased”. In addition, the “relative abundance of Staphylococcus” value with skin microbiota [2] (atopic dermatitis patients not exhibiting lesions) and in the assay on skin microbiota [2] (subjects with atopic dermatitis lesions) was “selectively reduces” in each case. Moreover, in the assay with skin microbiota [3], the “abundance of Staphylococcus” value was “significantly reduced; also recorded: selective reduction”. For the same compound, the total bacterial level entry in the assay on skin microbiota [4] is “lowers”.
